Results published in patent publication US20230218632A1, “CYCLIC SULFONAMIDE DERIVATIVES AS TRAP1 MODULATORS AND USES THEREOF” (Amathus Therapeutics, Inc., priority 2020, published 2023).

Biological target: T1, TRAP1 enzyme (Homo sapiens, UniProt Q12931)
T1 sequence (Q12931 60-704): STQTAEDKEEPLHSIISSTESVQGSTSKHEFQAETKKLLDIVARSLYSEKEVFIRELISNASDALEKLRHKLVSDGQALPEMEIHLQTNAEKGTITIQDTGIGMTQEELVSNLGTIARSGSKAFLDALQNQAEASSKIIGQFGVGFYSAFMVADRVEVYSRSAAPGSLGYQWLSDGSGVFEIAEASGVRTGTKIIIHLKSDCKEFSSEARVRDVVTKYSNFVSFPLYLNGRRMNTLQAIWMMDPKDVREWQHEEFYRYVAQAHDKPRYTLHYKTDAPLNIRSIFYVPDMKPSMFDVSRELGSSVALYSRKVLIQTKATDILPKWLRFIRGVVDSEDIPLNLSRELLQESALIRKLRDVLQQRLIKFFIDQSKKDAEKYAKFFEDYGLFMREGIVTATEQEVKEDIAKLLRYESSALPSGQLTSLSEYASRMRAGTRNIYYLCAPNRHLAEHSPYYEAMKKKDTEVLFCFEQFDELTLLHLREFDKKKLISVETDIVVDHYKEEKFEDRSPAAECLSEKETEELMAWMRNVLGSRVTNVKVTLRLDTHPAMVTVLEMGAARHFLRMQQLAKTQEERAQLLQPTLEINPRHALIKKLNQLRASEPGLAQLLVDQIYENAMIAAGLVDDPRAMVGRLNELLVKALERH
Assay: ADP Glo assay (ATPase activity of TRAP1)
Type: biochemical
Conditions: for EC50: 150 nM Trap1, 20 µM ATP, concentration for half maximal activation, read-out: ADP GLO DRC: GeoMean EC50; for Emax: maximal percent activation, read-out: ADP GLO DRC: Mean Emax
Protocol: Potency of test compounds to modulate the ATPase activity of TRAP1 enzyme was evaluated using ADP Glo assay. The assay is based on quantification of the ADP generated from ATP in the ATPase reaction. The assay is performed in two steps; first, after the ATPase reaction, an equal volume of ADP-Glo™ Reagent is added to terminate the ATPase reaction and deplete the remaining ATP. Second, the Kinase Detection Reagent is added to simultaneously convert ADP to ATP and allow the newly synthesized ATP to be measured using a luciferase/luciferin reaction.
All the assays were carried out in a 384-well Proxiplate. The buffer used was 25 mM Pipes pH-7.5, 40 mM KCl, 0.05 mM MgCl2, 0.025 % BSA, 0.316 mM EGTA, 0.003% Empigen, 0.01% Igepal. 150 nM Trap1 enzyme was incubated with various concentrations of the test compound (0.79 µM - 100 µM) at 37° C. for 30 mins (except in blank wells). 20 µM ATP was added to each well to start the reaction. The plate was spun for 1 min at 1200 rpm and then incubated at 37° C. for 60 mins. 5 µl of ADP Glo reagent was added to all the wells and spun the plate for 1 min at 1200 rpm and kept it on a shaker at ambient temperature for 60 mins. 10 µl of kinase detection mix was added to all the wells and the plate was read for Luminescence at 495 nm. The amount of ADP released was estimated from ATP/ADP standard curve generated at the same experimental conditions. Emax (Maximal percent activation) and EC50 (concentration for half maximal activation ) were estimated by fitting the dose response data to a sigmoidal curve fitting equation using Graphpad Prism software V. 8.

With `O=C(Nc1ccc2c(c1)S(=O)(=O)N(c1ccc(C(F)(F)F)cc1)CCO2)c1ccc(O)nn1` [Compound 2194] the EC50 was less than 20 µM and the Emax was 129 to 149%.

`Cc1ccnc(C(=O)Nc2ccc3c(c2)S(=O)(=O)N(c2ccc(C(F)(F)F)cc2)CCO3)n1` [Compound 2261] gave an EC50 of 30 to 100 µM and an Emax of 150 to 200%.

For `O=C(Nc1ccc2c(c1)S(=O)(=O)N(c1ccc(C(F)(F)F)cc1)CCO2)c1cc(=O)cc[nH]1` [Compound 2473], the EC50 was 30 to 100 µM and the Emax was greater than 200%.

`Cc1ccc(C(=O)Nc2ccc3c(c2)S(=O)(=O)N(c2ccc(C(F)(F)F)cc2)CCO3)cn1` [Compound 2174] gave an EC50 of 20 to 30 µM and an Emax of 129 to 149%.

`Cc1cnn(C)c1C(=O)Nc1ccc2c(c1)S(=O)(=O)N(c1ccc(C(F)(F)F)cc1)CCO2` [Compound 2317] gave an EC50 of less than 20 µM and an Emax of 129 to 149%.

`Cc1ocnc1C(=O)N(C)c1ccc2c(c1)S(=O)(=O)N(c1ccc(C(F)(F)F)cc1)CCO2` [Compound 2449] was tested, and the EC50 was 30 to 100 µM and the Emax was 150 to 200%.

`O=C(Nc1ccc2c(c1)S(=O)(=O)N(c1ccc(C(F)(F)F)cc1)CCO2)c1cc[nH]c(=O)c1` [Compound 2187] was tested, and the EC50 was 30 to 100 µM and the Emax was greater than 200%.

For `Cc1ncoc1C(=O)Nc1ccc2c(c1)S(=O)(=O)N(c1ccc(C(F)(F)F)cc1)CCO2` [Compound 1190, N-(1,1-Dioxido-2-(4-(Trifluoromethyl)Phenyl)-3,4-Dihydro-2H-benzo[b][1,4,5]Oxathiazepin-8-yl)-4-Methyloxazole-5-Carboxamide], the EC50 was less than 20 µM and the Emax was 150 to 200%.

In the case of `O=C(Nc1ccc2c(c1)S(=O)(=O)N(c1ccc(C(F)(F)F)cc1)CCO2)c1ncoc1C(F)(F)F` [Compound 2494], the EC50 is reported as 30 to 100 µM and the Emax is reported as 129 to 149%.

Work on `Cn1c(C(=O)Nc2ccc3c(c2)S(=O)(=O)N(c2ccc(C(F)(F)F)cc2)CCO3)cnc1O` [Compound 2351] yielded an EC50 of 30 to 100 µM and an Emax greater than 200%.

Molecule `Cc1c(C(=O)Nc2ccc3c(c2)S(=O)(=O)N(c2ccc(C(F)(F)F)cc2)CCO3)cnn1C` [Compound 2295] has an EC50 of 30 to 100 µM and an Emax greater than 200%.

For `O=C(Nc1ccc2c(c1)S(=O)(=O)N(c1ccc(C(F)(F)F)cc1)CCO2)c1cncn1CCO` [Compound 2514], the EC50 was 20 to 30 µM and the Emax was 129 to 149%.

`O=C(Nc1ccc2c(c1)S(=O)(=O)N(c1ccc(C(F)(F)F)cc1)CCO2)c1ccncc1` [Compound 2234] gave an EC50 of 20 to 30 µM and an Emax of 150 to 200%.

With `Cc1ncc(C(=O)Nc2ccc3c(c2)S(=O)(=O)N(c2ccc(C(F)(F)F)cc2)CCO3)n1C` [Compound 2355] the EC50 was less than 20 µM and the Emax was greater than 200%.

In the case of `Cc1cncc(C(=O)Nc2ccc3c(c2)S(=O)(=O)N(c2ccc(C(F)(F)F)cc2)CCO3)c1` [Compound 2191], the EC50 is reported as less than 20 µM and the Emax is reported as 150 to 200%.

Work on `CC(C)n1cnc(C(=O)Nc2ccc3c(c2)S(=O)(=O)N(c2ccc(C(F)(F)F)cc2)CCO3)n1` [Compound 2258] yielded an EC50 of 20 to 30 µM and an Emax of 129 to 149%.

With `CN1CCCCC1C(=O)Nc1ccc2c(c1)S(=O)(=O)N(c1ccc(C(F)(F)F)cc1)CCO2` (stereo not drawn) [Compound 2402] the EC50 was 30 to 100 µM and the Emax was 150 to 200%.

With `Cn1nc(C(=O)Nc2ccc3c(c2)S(=O)(=O)N(c2ccc(C(F)(F)F)cc2)CCO3)ccc1=O` [Compound 2228] the EC50 was 20 to 30 µM and the Emax was 129 to 149%.

In the case of `O=C(Nc1ccc2c(c1)S(=O)(=O)N(c1ccc(C(F)(F)F)cc1)CCO2)c1cnc(-c2ccccc2)[nH]1` [Compound 2423], the EC50 is reported as less than 20 µM and the Emax is reported as 129 to 149%.

`O=C(Nc1ccc2c(c1)S(=O)(=O)N(c1ccc(C(F)(F)F)cc1)CCO2)c1csc2c1CNCC2` [Compound 2433] was tested, and the EC50 was 30 to 100 µM and the Emax was greater than 200%.

`Cc1ncoc1C(=O)Nc1ccc2c(c1)S(=O)(=O)N(c1ccc(C(F)F)cc1)CCO2` [Compound 2443] showed an EC50 of 30 to 100 µM and an Emax of 150 to 200%.

In the case of `CC(C)n1cncc1C(=O)Nc1ccc2c(c1)S(=O)(=O)N(c1ccc(C(F)(F)F)cc1)CCO2` [Compound 2439], the EC50 is reported as 20 to 30 µM and the Emax is reported as 150 to 200%.

For `Cn1ccnc1C(=O)Nc1ccc2c(c1)S(=O)(=O)N(c1ccc(C(F)(F)F)cc1)CCO2` [Compound 2090, N-(1,1-Dioxido-2-(4-(Trifluoromethyl)Phenyl)-3,4-Dihydro-2H-Benzo[b][1,4,5]Oxathiazepin-8-yl)-1-Methyl-1H-Imidazole-2-Carboxamide], the EC50 was less than 20 µM and the Emax was 129 to 149%.

`Cn1ccc(=O)cc1C(=O)Nc1ccc2c(c1)S(=O)(=O)N(c1ccc(C(F)(F)F)cc1)CCO2` [Compound 2516] showed an EC50 of 30 to 100 µM and an Emax greater than 200%.

In the case of `Cc1nnccc1C(=O)Nc1ccc2c(c1)S(=O)(=O)N(c1ccc(C(F)(F)F)cc1)CCO2` [Compound 2242], the EC50 is reported as 30 to 100 µM and the Emax is reported as greater than 200%.

In the case of `Cn1nncc1C(=O)Nc1ccc2c(c1)S(=O)(=O)N(c1ccc(C(F)(F)F)cc1)CCO2` [Compound 2226], the EC50 is reported as 30 to 100 µM and the Emax is reported as 150 to 200%.

`CCc1nn(C)cc1C(=O)Nc1ccc2c(c1)S(=O)(=O)N(c1ccc(C(F)(F)F)cc1)CCO2` [Compound 2265] was tested, and the EC50 was less than 20 µM and the Emax was 150 to 200%.

With `Cc1ccccc1N1CCOc2ccc(NC(=O)c3ncoc3C)cc2S1(=O)=O` [Compound 2096, N-(1,1-dioxido-2-(o-tolyl)-3,4-dihydro-2H-benzo[b][1,4,5]oxathiazepin-8-yl)-5-methyloxazole-4-carboxamide] the EC50 was 30 to 100 µM and the Emax was 150 to 200%.

For `O=C(Nc1ccc2c(c1)S(=O)(=O)N(c1ccc(C(F)(F)F)cc1)CCO2)c1cccc(CO)n1` [Compound 2291], the EC50 was less than 20 µM and the Emax was 150 to 200%.

Molecule `Cc1cnncc1C(=O)Nc1ccc2c(c1)S(=O)(=O)N(c1ccc(C(F)(F)F)cc1)CCO2` [Compound 2275] has an EC50 of 30 to 100 µM and an Emax of 150 to 200%.

With `COc1cc(C(=O)Nc2ccc3c(c2)S(=O)(=O)N(c2ccc(C(F)(F)F)cc2)CCO3)n(C)n1` [Compound 2222] the EC50 was less than 20 µM and the Emax was 150 to 200%.

Work on `O=C(Nc1ccc2c(c1)S(=O)(=O)N(c1ccc(C(F)(F)F)cc1)CCO2)c1cnc[nH]c1=O` [Compound 2334] yielded an EC50 of less than 20 µM and an Emax of 150 to 200%.

With `Cn1cc(C(=O)Nc2ccc3c(c2)S(=O)(=O)N(c2ccc(C(F)(F)F)cc2)CCO3)c2cccnc21` [Compound 2451] the EC50 was less than 20 µM and the Emax was 129 to 149%.

Work on `Cc1ccncc1C(=O)Nc1ccc2c(c1)S(=O)(=O)N(c1ccc(C(F)(F)F)cc1)CCO2` [Compound 1212, N-(1,1-Dioxido-2-(4-(Trifluoromethyl)Phenyl)-3,4-Dihydro-2H-Benzo[b][1,4,5]Oxathiazepin-8-yl)-4-Methylnicotinamide] yielded an EC50 of 20 to 30 µM and an Emax of 150 to 200%.

`O=C(Nc1ccc2c(c1)S(=O)(=O)N(c1ccc(C(F)(F)F)cc1)CCO2)c1cc(=O)cco1` [Compound 2190] showed an EC50 of 30 to 100 µM and an Emax greater than 200%.

In the case of `Cc1cc(C(=O)Nc2ccc3c(c2)S(=O)(=O)N(c2ccc(C(F)(F)F)cc2)CCO3)cc(C)n1` [Compound 2510], the EC50 is reported as 30 to 100 µM and the Emax is reported as 150 to 200%.

In the case of `COc1ccc(N2CCOc3ccc(NC(=O)c4ncoc4C)cc3S2(=O)=O)cc1` [Compound 2167, N-(2-(4-methoxyphenyl)-1,1-dioxido-3,4-dihydro-2H-benzo[b][1,4,5]oxathiazepin-8-yl)-5-methyloxazole-4-carboxamide], the EC50 is reported as 30 to 100 µM and the Emax is reported as 150 to 200%.

In the case of `O=C(Nc1ccc2c(c1)S(=O)(=O)N(c1ccc(C(F)(F)F)cc1)CCO2)c1cscn1` [Compound 2184], the EC50 is reported as less than 20 µM and the Emax is reported as 129 to 149%.

For `O=C(Nc1ccc2c(c1)S(=O)(=O)N(c1ccc(C(F)(F)F)cc1)CCO2)c1ccccn1` [Compound 2197], the EC50 was 30 to 100 µM and the Emax was 129 to 149%.

Work on `Cc1ncoc1C(=O)Nc1ccc2c(c1)S(=O)(=O)N(c1ccc(C(F)(F)F)nc1)CCO2` [Compound 2388] yielded an EC50 of 30 to 100 µM and an Emax of 150 to 200%.

`Cc1cc(C(=O)Nc2cnc3c(c2)S(=O)(=O)N(c2ccc(C(F)(F)F)cc2)CCO3)n(C)n1` [Compound 2495] showed an EC50 of 20 to 30 µM and an Emax greater than 200%.

In the case of `Cc1ncsc1C(=O)Nc1ccc2c(c1)S(=O)(=O)N(c1ccc(C(F)(F)F)cc1)CCO2` [Compound 2058, N-(1,1-Dioxido-2-(4-(Trifluoromethyl)Phenyl)-3,4-Dihydro-2H-Benzo[b][1,4,5]Oxathiazepin-8-yl)-4-Methylthiazole-5-Carboxamide], the EC50 is reported as less than 20 µM and the Emax is reported as 150 to 200%.
